Measurements from doi:10.1101/2023.05.15.540887, “Comparative analysis of drug-like EP300/CREBBP acetyltransferase inhibitors” (bioRxiv, 2023).
Read-outs that look alike come from different tables or passages of the source.

Key:
RPMI-8226 = experiment: NCI-60 growth inhibition (sulforhodamine B); type: cell-based, human; conditions: RPMI-8226 (Leukemia), negative log of Molar conc., LCONC -8
MCF10A PANK4 KO+EV cells = experiment: Sulforhodamine B cell growth assay, MCF10A PANK4 KO+EV; type: cell-based, human
SK-MEL-5 = experiment: NCI-60 growth inhibition (sulforhodamine B); type: cell-based, human; conditions: SK-MEL-5 (Melanoma), negative log of Molar conc., LCONC -8
[1] = tested on: MCF10A PANK4 KO+PANK4 WT cells; experiment: Sulforhodamine B cell growth assay, MCF10A PANK4 KO+PANK4 WT; type: cell-based, human
HT29 = experiment: NCI-60 growth inhibition (sulforhodamine B); type: cell-based, human; conditions: HT29 (Colon Cancer), negative log of Molar conc., LCONC -8
HCT-15 = experiment: NCI-60 growth inhibition (sulforhodamine B); type: cell-based, human; conditions: HCT-15 (Colon Cancer), negative log of Molar conc., LCONC -8
OVCAR-8 = experiment: NCI-60 growth inhibition (sulforhodamine B); type: cell-based, human; conditions: OVCAR-8 (Ovarian Cancer), negative log of Molar conc., LCONC -8
MCF7 = experiment: NCI-60 growth inhibition (sulforhodamine B); type: cell-based; conditions: Homo sapiens, MCF7, Breast Cancer, negative log of Molar value, LCONC -8, EXPID 2301NS84
SK-OV-3 = experiment: NCI-60 growth inhibition (sulforhodamine B); type: cell-based; conditions: Homo sapiens, SK-OV-3, Ovarian Cancer, negative log of Molar value, LCONC -8, EXPID 2301NS84
SNB-75 = experiment: NCI-60 growth inhibition (sulforhodamine B); type: cell-based, human; conditions: SNB-75 (CNS Cancer), negative log of Molar conc., LCONC -8
MALME-3M = experiment: NCI-60 growth inhibition (sulforhodamine B); type: cell-based, human; conditions: MALME-3M (Melanoma), negative log of Molar conc., LCONC -8
OVCAR-3 = experiment: NCI-60 growth inhibition (sulforhodamine B)
SF-295 = experiment: NCI-60 growth inhibition (sulforhodamine B); type: cell-based, human; conditions: SF-295 (CNS Cancer), negative log of Molar conc., LCONC -8
T-47D = experiment: NCI-60 growth inhibition (sulforhodamine B); type: cell-based; conditions: Homo sapiens, T47D
NCI-H322M = experiment: NCI-60 growth inhibition (sulforhodamine B); type: cell-based, human; conditions: NCI-H322M (Non-Small Cell Lung Cancer), negative log of Molar conc., LCONC -8
SW-620 = experiment: NCI-60 growth inhibition (sulforhodamine B); type: cell-based, human; conditions: SW-620 (Colon Cancer), negative log of Molar conc., LCONC -8
CAKI-1 = experiment: NCI-60 growth inhibition (sulforhodamine B); type: cell-based; conditions: Homo sapiens, CAKI-1, Renal Cancer, negative log of Molar value, LCONC -8, EXPID 2301NS84
RXF393 = experiment: NCI-60 growth inhibition (sulforhodamine B); type: cell-based; conditions: Homo sapiens, RXF 393, Renal Cancer, negative log of Molar value, LCONC -8, EXPID 2301NS84
PC-3 = experiment: NCI-60 growth inhibition (sulforhodamine B); type: cell-based; conditions: Homo sapiens, PC-3, Prostate Cancer, negative log of Molar value, LCONC -8, EXPID 2301NS84
UO-31 = experiment: NCI-60 growth inhibition (sulforhodamine B); type: cell-based; conditions: Homo sapiens, UO-31, Renal Cancer, negative log of Molar value, LCONC -8, EXPID 2301NS84
[2] = Homo sapiens, read-out: GI50 NLOGVALUE
[3] = Homo sapiens, read-out: IC50 NLOGVALUE (converted)
[4] = Homo sapiens, read-out: LC50 NLOGVALUE
[5] = Homo sapiens, read-out: GI50 NLOGVALUE (converted)
[6] = Homo sapiens, read-out: IC50 NLOGVALUE
[7] = read-out: IC50 NLOGVALUE (converted)

SMILES: C[C@H](CN[C@@H](C(=O)Nc1ccc(-c2cnn(C)c2)cn1)c1ccccc1)c1ccc(C#N)cc1 [CPI-1612]
- GI50 (RPMI-8226; [2]): < 10 nM
- IC50 (RPMI-8226; [3]): 12.6 nM
- CC50 (RPMI-8226; [4]): > 100000 nM
- TGI NLOGVALUE (RPMI-8226): 4.56
- IC50 (MCF10A PANK4 KO+EV cells; Homo sapiens, MCF-10A KO+EV, 72 h): 84 nM
- growth inhibition activity at 1 μM (MCF10A PANK4 KO+EV cells; PANK4 KO+EV cells, 1 μM): remains active
- GI50 (SK-MEL-5; [2]): < 10 nM
- IC50 (SK-MEL-5; [3]): 26.3 nM
- CC50 (SK-MEL-5; [4]): > 100000 nM
- TGI NLOGVALUE (SK-MEL-5): 4.48
- IC50 ([1]; Homo sapiens, MCF-10A KO+PANK4 WT, 72 h): 8.9 nM
- growth inhibition activity at 1 μM ([1]; PANK4 KO+WT cells, 1 μM): remains active
- TGI NLOGVALUE (HT29): 4
- GI50 (HT29; Homo sapiens, HT-29, read-out: GI50 NLOGVALUE (converted)): 49 nM
- IC50 (HT29; Homo sapiens, HT-29, read-out: IC50 NLOGVALUE (converted)): 437 nM
- TGI NLOGVALUE (HCT-15): 4
- GI50 (HCT-15; [5]): 16.2 nM
- IC50 (HCT-15; [3]): 53.7 nM
- CC50 (HCT-15; [4]): > 100000 nM
- GI50 (OVCAR-8; [5]): 40700 nM
- IC50 (OVCAR-8; [6]): > 100000 nM
- CC50 (OVCAR-8; [4]): > 100000 nM
- TGI NLOGVALUE (OVCAR-8): 4
- GI50 (MCF7; read-out: GI50 NLOGVALUE): < 10 nM
- IC50 (MCF7; read-out: IC50 NLOGVALUE): < 10 nM
- GI50 (SK-OV-3; read-out: GI50 NLOGVALUE): > 100000 nM
- IC50 (SK-OV-3; read-out: IC50 NLOGVALUE): > 100000 nM
- CC50 (SK-OV-3; read-out: LC50 NLOGVALUE): > 100000 nM
- GI50 (SNB-75; [2]): > 100000 nM
- IC50 (SNB-75; [6]): > 100000 nM
- CC50 (SNB-75; [4]): > 100000 nM
- TGI NLOGVALUE (SNB-75): 4
- GI50 (MALME-3M; [2]): < 10 nM
- IC50 (MALME-3M; [6]): > 100000 nM
- CC50 (MALME-3M; [4]): > 100000 nM
- TGI NLOGVALUE (MALME-3M): 4
- GI50 (OVCAR-3; Homo sapiens, OVCAR-3, read-out: GI50 NLOGVALUE): 186 nM
- IC50 (OVCAR-3; Homo sapiens, OVCAR-3, read-out: IC50 NLOGVALUE): 24000 nM
- CC50 (OVCAR-3; Homo sapiens, OVCAR-3, read-out: LC50 NLOGVALUE): > 100000 nM
- TGI NLOGVALUE (OVCAR-3; OVCAR-3 (Ovarian Cancer), negative log of Molar conc., LCONC -8): 4
- GI50 (SF-295; [2]): < 10 nM
- IC50 (SF-295; [3]): 4170 nM
- CC50 (SF-295; [4]): > 100000 nM
- TGI NLOGVALUE (SF-295): 4
- GI50 (T-47D; T-47D, Breast Cancer, negative log of Molar value, LCONC -8, EXPID 2301NS84, read-out: GI50 NLOGVALUE (converted)): 11.5 nM
- IC50 (T-47D; T-47D, Breast Cancer, negative log of Molar value, LCONC -8, EXPID 2301NS84, read-out: IC50 NLOGVALUE (converted)): 42700 nM
- CC50 (T-47D; T-47D, Breast Cancer, negative log of Molar value, LCONC -8, EXPID 2301NS84, read-out: LC50 NLOGVALUE): > 100000 nM
- GI50 (T-47D; read-out: GI50 AVGDATA (converted)): 11.7 nM
- GI50 (NCI-H322M; [5]): 288 nM
- IC50 (NCI-H322M; [6]): > 100000 nM
- TGI NLOGVALUE (NCI-H322M): 4
- GI50 (SW-620; [5]): 417 nM
- IC50 (SW-620; [3]): 6760 nM
- CC50 (SW-620; [4]): > 100000 nM
- TGI NLOGVALUE (SW-620): 4
- GI50 (CAKI-1; read-out: GI50 NLOGVALUE): < 10 nM
- CC50 (CAKI-1; read-out: LC50 NLOGVALUE): > 100000 nM
- GI50 (RXF393; read-out: GI50 NLOGVALUE (converted)): 55000 nM
- IC50 (RXF393; read-out: IC50 NLOGVALUE): > 100000 nM
- CC50 (RXF393; read-out: LC50 NLOGVALUE): > 100000 nM
- GI50 (PC-3; read-out: GI50 NLOGVALUE): < 10 nM
- IC50 (PC-3; [7]): 447 nM
- CC50 (PC-3; read-out: LC50 NLOGVALUE): > 100000 nM
- GI50 (UO-31; read-out: GI50 NLOGVALUE): < 10 nM
- IC50 (UO-31; [7]): 28.2 nM
- CC50 (UO-31; read-out: LC50 NLOGVALUE): > 100000 nM
